Structures can show the parent of a compound that is named as a salt. Where two headings read alike, the source gives them in different places.
How the values were obtained:
Assay in all cases: Microculture tetrazolium assay
Assay type in all cases: cell-based
SKOV3 = conditions: Homo sapiens, SK-OV-3, SKOV3
T47D = conditions: Homo sapiens
HT29 = conditions: Homo sapiens, HT-29, HT29
LOX = tested on: LOX
SKVLB = conditions: for VLB/OV3: IC50 ratio SKVLB/SKOV3; for IC50: SKVLB

Compound `CC[C@@H]1Cc2c(O)c3c(c(O)c2[C@@H](O[C@H]2C[C@H](N)[C@H](O)[C@H](C)O2)O1)C(=O)c1ccccc1C3=O` [BCH-2016, (1'S,1R, 3R)-3-ethyl-5,12-dihydroxy-1-(2',3',6'-trideoxy-3'-amino-L-lyxohexopyranose)-1,2,3,4-tetrahydro-(2-oxygen)-naphthacene-6,11-dione-hydrochloride] has an IC50 (SKOV3; read-out: IC50) of 93.4 nM, an IC50 (T47D; read-out: IC50) of 345 nM and an IC50 (HT29; read-out: IC50) of 130 nM. For the same compound, the IC50 (LOX; read-out: IC50) was 59.7 nM, the VLB/OV3 (SKVLB) was 7.17 and the IC50 (SKVLB; read-out: IC50) was 670 nM.

For `C[C@@H]1O[C@@H](O[C@H]2O[C@H](S(=O)(=O)c3ccccc3)CC3=C2C(=O)c2cc4ccccc4c(O)c2C3=O)C[C@H](NC(=O)C(F)(F)F)[C@@H]1O` [BCH-2025], the IC50 (SKOV3) was 1970 nM, the IC50 (T47D; read-out: IC50) was 3340 nM and the IC50 (HT29; read-out: IC50) was 644 nM. It also gave an IC50 (LOX; read-out: IC50) of 1110 nM, a VLB/OV3 (SKVLB) of 3.15 and an IC50 (SKVLB; read-out: IC50) of 6200 nM.

In the case of `CC(=O)C1CC2=C(C(=O)c3cc4ccccc4c(O)c3C2=O)C(OC[C@@H](O)CO)O1` (stereo partly shown) [BCH-2034], the IC50 (SKOV3; read-out: IC50) is reported as 2950 nM, the IC50 (T47D; read-out: IC50) is reported as 7870 nM and the IC50 (HT29; read-out: IC50) is reported as 2050 nM. It also gave an IC50 (LOX; read-out: IC50) of 1430 nM, a VLB/OV3 (SKVLB) of 2.54 and an IC50 (SKVLB) of 7490 nM.

`CC(=O)[C@H]1CC2=C(C(=O)c3cc4ccccc4c(O)c3C2=O)[C@H](O[C@H]2O[C@H](CO)[C@@H](O)[C@H](O)[C@H]2NC(=O)N(CCCl)N=O)O1` [BCH-2039] showed an IC50 (SKOV3) of 13500 nM, an IC50 (T47D) of 12600 nM and an IC50 (HT29) of 4430 nM. For the same compound, the IC50 (LOX) was 1550 nM, the VLB/OV3 (SKVLB) was 6.01 and the IC50 (SKVLB) was 81200 nM.

Work on `CC(C)[C@H]1Cc2c(O)c3c(c(O)c2[C@H](O[C@H]2C[C@H](N)[C@H](O)[C@H](C)O2)O1)C(=O)c1ccccc1C3=O` [BCH-2049, (1'S,1S,3R)-5,12-trihydroxy-3-isopropyl-1-(2',3',6'-trideoxy-3'-amino-L-lyxohexopyranose)-1,2,3,4-tetrahydro-(2-oxygen)-naphthacene-6,11-dione-hydrochloride] yielded an IC50 (SKOV3; read-out: IC50) of 275 nM, an IC50 (T47D; read-out: IC50) of 263 nM and an IC50 (HT29; read-out: IC50) of 77.3 nM. It also gave an IC50 (LOX; read-out: IC50) of 102 nM, a VLB/OV3 (SKVLB) of 1.72 and an IC50 (SKVLB; read-out: IC50) of 472 nM.

With `CC(C)[C@@H]1Cc2c(O)c3c(c(O)c2[C@@H](O[C@H]2C[C@H](N)[C@H](O)[C@H](C)O2)O1)C(=O)c1ccccc1C3=O` [BCH-2050, (1'S,1R,3S)-5,12-Dixydroxy-3-isopropy-1-(2',3',6'-trideoxy-3'-amino 'L-lyxohexopyranose)-1,2,3,4-tetrahydro-(2-oxygen)-naphtacene-6,11-dione-hydrochloride] the IC50 (SKOV3; read-out: IC50) was 70.6 nM, the IC50 (T47D; read-out: IC50) was 412 nM and the IC50 (HT29; read-out: IC50) was 304 nM. It also gave an IC50 (LOX; read-out: IC50) of 38.4 nM, a VLB/OV3 (SKVLB) of 0.95 and an IC50 (SKVLB; read-out: IC50) of 67.2 nM.

With `C[C@@H]1O[C@@H](O[C@@H]2O[C@@H](COc3ccccc3)CC3=C2C(=O)c2cc4ccccc4c(O)c2C3=O)C[C@H](NC(=O)C(F)(F)F)[C@@H]1O` [BCH-2057, (1'S,1S,3R)-5,12-dioxo-6-hydroxy-3-phenyloxymethyl-1-(2',3',6'-trideoxy-3'-trifluoroacetamido-L-lyxohexopyranose)-3,4,5,12-tetrahydroanthraceno-[2,3-c]pyran] the IC50 (SKOV3; read-out: IC50) was 1030 nM, the IC50 (T47D; read-out: IC50) was 243 nM and the IC50 (HT29; read-out: IC50) was 2690 nM. It also gave an IC50 (LOX; read-out: IC50) of 1490 nM, a VLB/OV3 (SKVLB) of 5.01 and an IC50 (SKVLB; read-out: IC50) of 5160 nM.

Work on `CC(=O)[C@@H]1Cc2c(O)c3c(c(O)c2[C@@H](O[C@@H]2O[C@@H](C)[C@@H](O)[C@@H](NC(=O)C(F)(F)F)C2I)O1)C(=O)c1ccccc1C3=O` (stereo partly shown) [BCH-2063] yielded an IC50 (SKOV3; read-out: IC50) of 447 nM, an IC50 (T47D; read-out: IC50) of 146 nM and an IC50 (HT29; read-out: IC50) of 2660 nM. For the same compound, the IC50 (LOX; read-out: IC50) was 314 nM, the VLB/OV3 (SKVLB) was 4.34 and the IC50 (SKVLB; read-out: IC50) was 1940 nM.

For `CC(=O)[C@H]1CC2=C(C(=O)c3cc4ccccc4c(O)c3C2=O)[C@H](O[C@@H]2O[C@@H](C)[C@@H](O)[C@@H](NC(=O)C(F)(F)F)C2I)O1` (stereo partly shown) [BCH-2064], the IC50 (SKOV3; read-out: IC50) was 1450 nM, the IC50 (T47D; read-out: IC50) was 878 nM and the IC50 (HT29; read-out: IC50) was 440 nM. For the same compound, the IC50 (LOX; read-out: IC50) was 10800 nM, the VLB/OV3 (SKVLB) was 2.38 and the IC50 (SKVLB; read-out: IC50) was 3450 nM.

`CC(=O)[C@@H]1Cc2c(O)c3c(c(O)c2[C@@H](O[C@@H]2O[C@@H](C)[C@@H](O)[C@@H](N)C2I)O1)C(=O)c1ccccc1C3=O` (stereo partly drawn) [BCH-2066, (1'S,1R,3S)-Methyl-(5,12-dihydroxy-1-[2',3',6'-trideoxy-3'-amino-4'hydroxy-2'-iodo-L-lyxohexopyranose]-6,11-dioxo-3,4,6,11-tetrahydroanthraceno-[2,3C]-pyran-3-yl) ketone hydrochloride] was tested, and the IC50 (SKOV3; read-out: IC50) was 92.7 nM, the IC50 (T47D; read-out: IC50) was 501 nM and the IC50 (HT29; read-out: IC50) was 534 nM. It also gave an IC50 (LOX; read-out: IC50) of 105 nM, a VLB/OV3 (SKVLB) of 6.32 and an IC50 (SKVLB; read-out: IC50) of 586 nM.

Work on `CC(=O)[C@@H]1CC2=C(C(=O)c3cc4ccccc4c(O)c3C2=O)[C@@H](O[C@H]2O[C@H](CO)[C@@H](O)[C@H](O)[C@H]2NC(=O)N(CCCl)N=O)O1` [BCH-2073, (1'R, 1R,3S)-3-Aceto-6-hydroxy-1-(2-deoxy-2-chloroethylnitrosoureido-D-glucopyranose)-5,12-dioxo-3,4,5,12-tetrahydro-1H-anthra[2,3-C]pyran] yielded an IC50 (SKOV3) of 5140 nM, an IC50 (T47D) of 6120 nM and an IC50 (HT29) of 6590 nM. It also gave an IC50 (LOX) of 807 nM, a VLB/OV3 (SKVLB) of 2.67 and an IC50 (SKVLB) of 13700 nM.

`CC(=NO)[C@H]1Cc2c(O)c3c(c(O)c2[C@H](O[C@H]2C[C@H](N)[C@H](O)[C@H](C)O2)O1)C(=O)c1ccccc1C3=O` [BCH-2074, (1'S, 1S,3R)-3-(Oximoethyl)-5,12-dihydroxy-1(2,3,6-trideoxy-3-amino-L-lyxohexolpyranose)-6,11-dioxo-3,4,6,11-tetrahydro-1H-anthra[2,3-C]pyran hydrochloride] showed an IC50 (SKOV3; read-out: IC50) of 310 nM, an IC50 (T47D; read-out: IC50) of 693 nM and an IC50 (HT29; read-out: IC50) of 586 nM. For the same compound, the IC50 (LOX; read-out: IC50) was 148 nM, the VLB/OV3 (SKVLB) was 45.48 and the IC50 (SKVLB; read-out: IC50) was 14100 nM.

`CCC1COC(OC2CC(NC(=O)C(F)(F)F)C(O)C(C)O2)C2=C1C(=O)c1c(cc3ccccc3c1O)C2=O` [BCH-2080, (1'S,1S,4S)-5,12-Dioxo-4-ethyl-6-hydroxy-1-(2',3',6'-trideoxy-3'-trifluoroacetamido-L-lyxohexopyranose)-3,4,5,12-tetrahydroanthraceno-[2,3-c]-pyran] gave an IC50 (SKOV3; read-out: IC50) of 2400 nM, an IC50 (T47D; read-out: IC50) of 3600 nM and an IC50 (HT29; read-out: IC50) of 3000 nM. It also gave an IC50 (LOX; read-out: IC50) of 2100 nM and an IC50 (SKVLB; read-out: IC50) of 4700 nM.

`CCC1COC(OC2CC(N)C(O)C(C)O2)c2c(O)c3c(c(O)c21)C(=O)c1ccccc1C3=O` [BCH-2086, (1'S,1R,4R)-5,12-Dihydroxy-4-ethyl-1-(2',3',6'-trideoxy-3'-amino-L-lyxohexopyranose)-1,2,3,4-tetrahydro-(2-oxygen)-naphthacene-6,11-dione-hydrochloride] showed an IC50 (SKOV3; read-out: IC50) of 860 nM, an IC50 (T47D; read-out: IC50) of 1400 nM and an IC50 (HT29; read-out: IC50) of 640 nM. For the same compound, the IC50 (LOX; read-out: IC50) was 360 nM and the IC50 (SKVLB; read-out: IC50) was 1700 nM.

Work on `CCCCC[C@H]1Cc2c(O)c3c(c(O)c2[C@H](O[C@H]2C[C@H](N)[C@H](O)[C@H](C)O2)O1)C(=O)c1ccccc1C3=O` [BCH-2088, (1'S,1S,3S)-5,12-mihydroxy-3-pentyl-1-(2',3',6'-trideoxy-3'-amino-L-lyxohexopyranose)-1,2,3,4-tetrahydro-(2-oxygen)-naphtacene-6,11-dione-hydrochloride] yielded an IC50 (SKOV3; read-out: IC50) of 573 nM, an IC50 (T47D; read-out: IC50) of 174 nM and an IC50 (HT29; read-out: IC50) of 24 nM. For the same compound, the IC50 (LOX; read-out: IC50) was 201 nM, the VLB/OV3 (SKVLB) was 1.90 and the IC50 (SKVLB; read-out: IC50) was 1090 nM.

— patent US5593970A, “Heterocyclic anthracycline analogs” (priority 1994, dated 1997)
